From PubChem BioAssay (NCI) come the findings set out here.

Among the test systems are LOX IMVI melanoma; NCI-H460 lung; SW-620 colon; K-562 leukemia; ACHN renal; COLO 205 colon; MDA-MB-435; IGROV1 ovarian; OVCAR-3 ovarian; MDA-N.
Holding throughout (experiment): inhibition of tumour cell growth, NCI panel, 48 h

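In this assay, cells in 96-well plates receive the compound at five concentrations for 48 hours. Endpoints are linearly interpolated between the surrounding concentrations. GI50: concentration for 50% inhibition of growth. TGI marks complete inhibition of growth.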 Where only a bound is given, the exact number is not on record here.

On to `O=C(Nc1ccc(-n2ccc3c(NC(=O)c4ccccc4)ncnc32)cc1)Nc1ccc(Cl)c(Cl)c1`, for which the GI50 is 2380 nM in the assay on LOX IMVI melanoma; 1710 nM in the assay on NCI-H460 lung; 1540 nM in the assay on SW-620 colon; 1730 nM with K-562 leukemia; 6.25 µM in the assay with ACHN renal; 2600 nM in the assay on COLO 205 colon. Also, the GI50 in the assay with MDA-MB-435 is 2440 nM; in the assay with IGROV1 ovarian, 7.16 µM; with OVCAR-3 ovarian, 1.35 µM. For the same compound, the TGI in the assay on LOX IMVI melanoma is 16.3 µM; in the assay on NCI-H460 lung, 5.85 µM; in the assay on SW-620 colon, 5.31 µM; with K-562 leukemia, 6.75 µM; in the assay on ACHN renal, 14.2 µM; in the assay on COLO 205 colon, 9.89 µM. Moreover, the values for the TGI in the assay with MDA-MB-435, with IGROV1 ovarian and in the assay with OVCAR-3 ovarian were 11.5 µM, 18.2 µM and 3.5 µM, respectively.

For `COc1ccc(C2SCC(=O)N2NC(=O)c2ccc(NC(C)=O)cc2)c(OC)c1` (stereo unspecified), the TGI in the assay with MDA-N, with NCI-H460 lung, in the assay with SW-620 colon, with K-562 leukemia, with ACHN renal and in the assay with COLO 205 colon was over 100 µM in each case. Further, the TGI in the assay on MDA-MB-435, with IGROV1 ovarian and with OVCAR-3 ovarian was over 100 µM throughout.

`N#Cc1c(-c2ccc(Cl)cc2)[nH]c(=O)n(C2OC(CO)C(O)C(O)C2O)c1=O` (stereo unspecified): the TGI with NCI-H460 lung, with SW-620 colon, with K-562 leukemia, in the assay with ACHN renal, in the assay on COLO 205 colon and in the assay with MDA-MB-435 was over 100 µM in each case. In addition, the TGI in the assay with IGROV1 ovarian and with OVCAR-3 ovarian was over 100 µM each time.

For `N#Cc1c(N2CCC(O)C2)c2ccccc2n2c1nc1ccccc12` (stereo unspecified), the TGI was over 100 µM in the assay on MDA-N; over 100 µM with LOX IMVI melanoma; over 100 µM in the assay on NCI-H460 lung; over 100 µM in the assay on SW-620 colon; 42 µM in the assay on ACHN renal; over 100 µM with COLO 205 colon. Further, the TGI in the assay with MDA-MB-435, in the assay with IGROV1 ovarian and in the assay on OVCAR-3 ovarian was over 100 µM throughout.

For the compound `Nc1nc2ncc(CNc3ccc(C(=O)NC(CCC(=O)O)C(=O)O)cc3)nc2c(=O)[nH]1` (stereo unspecified), the TGI in the assay with LOX IMVI melanoma, with NCI-H460 lung, in the assay with SW-620 colon, with K-562 leukemia, in the assay with ACHN renal and in the assay on MDA-MB-435 was over 100 µM each time. Moreover, the TGI in the assay with IGROV1 ovarian and in the assay with OVCAR-3 ovarian was over 100 µM each time.

`Cc1ccc(/C(O)=C/C(=O)C(=O)NC23CC4CC(CC(C4)C2)C3)cc1`: the TGI in the assay on MDA-N, with LOX IMVI melanoma, with SW-620 colon, with K-562 leukemia, with COLO 205 colon and with MDA-MB-435 was over 10 µM throughout.

Consider `COc1ccc(-c2cc(=O)c3cc(OC)ccc3[nH]2)cc1`, for which the TGI in the assay with LOX IMVI melanoma, in the assay with SW-620 colon, in the assay on K-562 leukemia, with ACHN renal, with COLO 205 colon and with IGROV1 ovarian was over 100 µM each time. In the assay with OVCAR-3 ovarian, this compound showed a TGI of over 100 µM.

On to `COc1ccc(CCCNC(=O)c2cc(OC)c(OC)cc2CCO)cc1OC`, for which the TGI in the assay on LOX IMVI melanoma, in the assay on NCI-H460 lung, in the assay on SW-620 colon, with K-562 leukemia, in the assay on ACHN renal and in the assay on COLO 205 colon was over 100 µM each time. Besides, the TGI in the assay on MDA-MB-435, with IGROV1 ovarian and in the assay on OVCAR-3 ovarian was over 100 µM each time.

For the compound `COc1ccccc1-c1cc(=O)c2cc3c(cc2[nH]1)OCO3`, the TGI with LOX IMVI melanoma is over 100 µM; with NCI-H460 lung it was over 100 µM; in the assay with SW-620 colon, over 100 µM; in the assay with K-562 leukemia it was over 100 µM; in the assay on ACHN renal it was over 100 µM; with COLO 205 colon it was 51.5 µM. Besides, the TGI with IGROV1 ovarian and with OVCAR-3 ovarian was over 100 µM in each case. Further, the GI50 in the assay with OVCAR-3 ovarian is 39.9 µM.

For the compound `N#CC(Cc1ccccc1)N(CCC1=CCCCC1)Cc1ccccc1` (stereo unspecified), the TGI with MDA-N was over 100 µM; in the assay with NCI-H460 lung, over 100 µM; in the assay on SW-620 colon, over 100 µM; in the assay with K-562 leukemia it was over 100 µM; in the assay on ACHN renal it was over 100 µM; in the assay on COLO 205 colon it was 66.4 µM. Moreover, the values for the TGI in the assay on MDA-MB-435, in the assay with IGROV1 ovarian and in the assay with OVCAR-3 ovarian were 91.1 µM, over 100 µM and over 100 µM, respectively.

For `COC1C(O)C(n2ncc3c(SC)nc(SC)nc32)OC1C(O)CO` (stereo unspecified), the TGI in the assay with LOX IMVI melanoma, with NCI-H460 lung, in the assay on SW-620 colon, in the assay on K-562 leukemia, in the assay on COLO 205 colon and in the assay with IGROV1 ovarian was over 100 µM throughout. The same compound gave a TGI with OVCAR-3 ovarian of over 100 µM.

On to `COC1CN(C)C(=Nc2cccc3ccccc23)S1` (stereo unspecified), for which the TGI in the assay with MDA-N, in the assay with LOX IMVI melanoma, in the assay on SW-620 colon, with K-562 leukemia, in the assay with ACHN renal and with COLO 205 colon was over 10 µM each time. Also, the TGI with MDA-MB-435 and with IGROV1 ovarian was over 10 µM throughout.

Consider `CC(C)N=C(N)NC#N`, for which the TGI in the assay with LOX IMVI melanoma, in the assay on NCI-H460 lung, in the assay with SW-620 colon, in the assay with K-562 leukemia, in the assay on ACHN renal and in the assay on COLO 205 colon was over 100 µM in each case. Also, the TGI in the assay on IGROV1 ovarian and in the assay on OVCAR-3 ovarian was over 100 µM each time.

`O=C(Nc1ccc2[nH]c(C(=O)N3CC(CCl)c4c3cc([N+](=O)[O-])c3ccccc43)cc2c1)Nc1ccc2[nH]c(C(=O)N3CC(CCl)c4c3cc([N+](=O)[O-])c3ccccc43)cc2c1` (stereo unspecified): the TGI in the assay on MDA-N, with NCI-H460 lung, with ACHN renal, in the assay with COLO 205 colon, in the assay on MDA-MB-435 and in the assay on OVCAR-3 ovarian was over 100 µM throughout.

`COC(=O)c1ccc(N=NN(C)COc2ccc(Br)cc2)cc1`: the TGI in the assay with LOX IMVI melanoma, in the assay with NCI-H460 lung, with SW-620 colon, in the assay on K-562 leukemia, in the assay on COLO 205 colon and in the assay with IGROV1 ovarian was over 100 µM throughout. This compound also came in with a TGI with OVCAR-3 ovarian of over 100 µM.

As to `Cc1cc(/C=C/c2cc[n+](C)c3ccccc23)c(O)c2ncccc12`, the TGI with LOX IMVI melanoma is 12.3 µM; with NCI-H460 lung, 16.7 µM; with SW-620 colon it was 19.3 µM; with K-562 leukemia, 13.7 µM; with ACHN renal, 16.4 µM; with COLO 205 colon, 23.3 µM. Moreover, the TGI in the assay on IGROV1 ovarian came to 8.39 µM; in the assay on OVCAR-3 ovarian, 3.97 µM.
